The values below are quoted from earlier work in PMC13207833, “Coumarin–Amino Acid Hybrids Used as Possible Multifactorial Anti-Inflammatory Agents” (International Journal of Molecular Sciences, 2026).

Each structure is given as a SMILES string.

For orientation: IC50 means the midpoint of a concentration-inhibition curve.

For this data set, the target named is T1, soybean lipoxygenase (SLOX-1) (Glycine max, UniProt P08170).
T1 construct: purchased Merck and Sigma-Aldrich
T1 sequence (P08170 1-839): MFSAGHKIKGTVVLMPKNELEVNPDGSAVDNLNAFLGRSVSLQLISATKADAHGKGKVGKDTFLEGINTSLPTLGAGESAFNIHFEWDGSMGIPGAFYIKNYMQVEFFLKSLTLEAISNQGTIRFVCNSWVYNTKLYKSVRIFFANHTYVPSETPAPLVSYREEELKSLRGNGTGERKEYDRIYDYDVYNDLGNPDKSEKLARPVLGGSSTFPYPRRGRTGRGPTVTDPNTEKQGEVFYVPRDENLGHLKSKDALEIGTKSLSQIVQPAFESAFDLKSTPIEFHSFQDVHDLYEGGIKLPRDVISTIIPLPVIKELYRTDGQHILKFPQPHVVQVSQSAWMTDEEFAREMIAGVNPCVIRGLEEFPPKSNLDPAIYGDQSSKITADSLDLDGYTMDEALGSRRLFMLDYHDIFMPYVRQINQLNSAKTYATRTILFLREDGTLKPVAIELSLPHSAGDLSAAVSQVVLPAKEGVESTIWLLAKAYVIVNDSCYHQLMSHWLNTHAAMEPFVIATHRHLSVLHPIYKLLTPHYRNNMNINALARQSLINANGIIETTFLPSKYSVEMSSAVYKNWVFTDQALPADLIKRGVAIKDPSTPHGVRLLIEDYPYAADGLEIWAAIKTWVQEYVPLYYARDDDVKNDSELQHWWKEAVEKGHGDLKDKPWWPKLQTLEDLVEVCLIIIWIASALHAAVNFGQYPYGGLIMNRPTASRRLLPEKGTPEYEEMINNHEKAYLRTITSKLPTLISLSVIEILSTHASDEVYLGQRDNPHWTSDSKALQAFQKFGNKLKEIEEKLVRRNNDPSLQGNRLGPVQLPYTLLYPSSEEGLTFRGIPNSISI
Further details: method as in PMID 29329232. Particulars: value from earlier paper of the group.

For `O=C(O)COc1ccc2oc(=O)ccc2c1` [Compound 2, 2-((2-oxo-2H-chromen-6-yl)oxy)acetic acid], the IC50 was 100 µM.
For `O=C(O)COc1ccc2ccc(=O)oc2c1` [Compound 3, 2-((2-oxo-2H-chromen-7-yl)oxy)acetic acid], the IC50 is 100 µM.
